In brackets after ≈: the same amount, converted by molar mass.
Key:
S. aureus MSSA (RN4220) = test: microbe, parasite or virus in culture; type: cell-based, Staphylococcus aureus; details: Staphylococcus aureus, MSSA, 18 h, read-out: Minimum Inhibitory Concentration, S. aureus MSSA
Experimental: (§1) MICs against a range of clinically important Gram-positive and Gram-negative bacteria strains including methicillin-sensitive Staphylococcus aureus (MSSA) RN4220 epidemic methicillin-resistant S. aureus-15 (EMRSA-15), methicillin-resistant S. aureus USA300 (MRSA USA300), Bacillus cereus, Enterococcus faecalis JH2–2, Escherichia coli K12, Salmonella enterica serovar Typhimurium SL1344, P. aeruginosa PAO1, and hospital isolates of Acinetobacter baummannii were determined in quadruplicate by a modified microdilution broth method [64] with a final bacterial inoculum concentration of 5 × 10^5 CFU/mL utilised as the test organisms. Cation-adjusted Mueller Hinton (MH) broth was innoclated overnight with a single colony of the tested microorganisms, subsequently grown for 16–24 h with shaking at 225 rpm, and further diluted in the same broth to a final concentration of 5 × 10^5 CFU/mL. The bacterial suspension was added to sterile U-bottomed 96-well plates, and the peptides and control antibiotics to be tested were dissolved in sterile distilled water and serially diluted in the wells. The MICs were recorded as the lowest peptide concentration that inhibited growth after incubation for 18 h [65].

S. aureus USA300 = test: microbe, parasite or virus in culture; type: cell-based, Staphylococcus aureus; details: Staphylococcus aureus, USA300, 18 h, read-out: Minimum Inhibitory Concentration, S. aureus USA300
Experimental: as §1

S. aureus ATCC 33591 = test: microbe, parasite or virus in culture; type: cell-based, Staphylococcus aureus; details: Staphylococcus aureus, ATCC33591, 18 h, read-out: Minimum Inhibitory Concentration, S. aureus ATCC 33591
Experimental: as §1

S. aureus EMRSA-15 = test: microbe, parasite or virus in culture; type: cell-based, Staphylococcus aureus; details: Staphylococcus aureus, EMRSA15, 18 h, read-out: Minimum Inhibitory Concentration, S. aureus EMRSA-15
Experimental: as §1

Ent. faecalis (JH2–2) = test: microbe, parasite or virus in culture; type: cell-based, Enterococcus faecalis; details: Enterococcus faecalis, 18 h, read-out: Minimum Inhibitory Concentration, Ent. faecalis
Experimental: as §1

B. cereus = test: microbe, parasite or virus in culture; type: cell-based, Bacillus cereus; details: Bacillus cereus, 18 h, read-out: Minimum Inhibitory Concentration, B. cereus
Experimental: as §1

EMRSA-15 cells = test: Time-kill assay; type: cell-based, Staphylococcus aureus; details: for Time dependent kill, Mean Log CFU/ml / Time dependent kill, CFU/ml / Time dependent kill, Log CFU/ml: 3x MIC (24 ug/ml); for Time dependent kill, Mean Log CFU/ml: mean of 3 independent replicates
Experimental: Time-dependent kill assays were adapted from standard procedures and were all performed as previously using exponential-phase cultures of EMRA-15 MRSA and USA300 grown in MHB (1 × 10^6 CFU/mL). […] Experiments were performed in triplicates, and CFU/mL was calculated at different time points after overnight incubation of inoculated agar plates (MHA) at 37 °C. Kill curves were plotted with CFU/mL against time (h).

CN[C@H](CC(C)C)C(=O)N[C@H]1C(=O)N[C@@H](CC(N)=O)C(=O)N[C@H]2C(=O)N[C@H]3C(=O)N[C@H](C(=O)N[C@H](C(=O)O)c4cc(O)cc(O)c4-c4cc3ccc4O)[C@H](O)c3ccc(c(Cl)c3)Oc3cc2cc(c3O[C@@H]2O[C@H](CO)[C@@H](O)[C@H](O)[C@H]2O[C@H]2C[C@](C)(N)[C@H](O)[C@H](C)O2)Oc2ccc(cc2Cl)[C@H]1O [Vancomycin]
MIC (S. aureus MSSA (RN4220)): 2 µg/mL (≈ 1.38 µM)
MIC (S. aureus USA300): 2 µg/mL (≈ 1.38 µM)
MIC (S. aureus ATCC 33591): 2 µg/mL (≈ 1.38 µM)
MIC (S. aureus EMRSA-15): 2 µg/mL (≈ 1.38 µM)
MIC (Ent. faecalis (JH2–2)): 2 µg/mL (≈ 1.38 µM)
MIC (B. cereus): 2 µg/mL (≈ 1.38 µM)
Time dependent kill, Mean Log CFU/ml (EMRSA-15 cells; 0 min): 6.839 Log CFU/ml
Time dependent kill, Mean Log CFU/ml (EMRSA-15 cells; 10 min): 6.579 Log CFU/ml
Time dependent kill, Mean Log CFU/ml (EMRSA-15 cells; 30 min): 6.503 Log CFU/ml
Time dependent kill, Mean Log CFU/ml (EMRSA-15 cells; 60 min): 6.404 Log CFU/ml
Time dependent kill, Mean Log CFU/ml (EMRSA-15 cells; 120 min): 5.884 Log CFU/ml
Time dependent kill, Mean Log CFU/ml (EMRSA-15 cells; 240 min): 5.168 Log CFU/ml
Time dependent kill, Mean Log CFU/ml (EMRSA-15 cells; 360 min): 4.661 Log CFU/ml
Time dependent kill, Mean Log CFU/ml (EMRSA-15 cells; 1440 min): 0 Log CFU/ml
Time dependent kill, CFU/ml (EMRSA-15 cells; T0 min, Exp1): 7200000 CFU/ml
Time dependent kill, CFU/ml (EMRSA-15 cells; T0 min, Exp2): 7600000 CFU/ml
Time dependent kill, CFU/ml (EMRSA-15 cells; T0 min, Exp3): 6000000 CFU/ml
Time dependent kill, Log CFU/ml (EMRSA-15 cells; T0 min, Exp3): 6.778 Log CFU/ml
Time dependent kill, CFU/ml (EMRSA-15 cells; T10 min, Exp1): 3800000 CFU/ml
Time dependent kill, Log CFU/ml (EMRSA-15 cells; T10 min, Exp1): 6.58 Log CFU/ml
Time dependent kill, CFU/ml (EMRSA-15 cells; T10 min, Exp2): 3600000 CFU/ml
Time dependent kill, Log CFU/ml (EMRSA-15 cells; T10 min, Exp2): 6.5563 Log CFU/ml
Time dependent kill, CFU/ml (EMRSA-15 cells; T10 min, Exp3): 4000000 CFU/ml
Time dependent kill, Log CFU/ml (EMRSA-15 cells; T10 min, Exp3): 6.602 Log CFU/ml
Time dependent kill, CFU/ml (EMRSA-15 cells; T30 min, Exp1): 2800000 CFU/ml
Time dependent kill, Log CFU/ml (EMRSA-15 cells; T30 min, Exp1): 6.447 Log CFU/ml
Time dependent kill, CFU/ml (EMRSA-15 cells; T30 min, Exp2): 4800000 CFU/ml
Time dependent kill, Log CFU/ml (EMRSA-15 cells; T30 min, Exp2): 6.681 Log CFU/ml
Time dependent kill, CFU/ml (EMRSA-15 cells; T30 min, Exp3): 2400000 CFU/ml
Time dependent kill, Log CFU/ml (EMRSA-15 cells; T30 min, Exp3): 6.38 Log CFU/ml
Time dependent kill, CFU/ml (EMRSA-15 cells; T60 min, Exp1): 2000000 CFU/ml
Time dependent kill, Log CFU/ml (EMRSA-15 cells; T60 min, Exp1): 6.301 Log CFU/ml
Time dependent kill, CFU/ml (EMRSA-15 cells; T60 min, Exp2): 3400000 CFU/ml
Time dependent kill, Log CFU/ml (EMRSA-15 cells; T60 min, Exp2): 6.531 Log CFU/ml
Time dependent kill, CFU/ml (EMRSA-15 cells; T60 min, Exp3): 2400000 CFU/ml
Time dependent kill, Log CFU/ml (EMRSA-15 cells; T60 min, Exp3): 6.38 Log CFU/ml
Time dependent kill, CFU/ml (EMRSA-15 cells; T120 min, Exp1): 800000 CFU/ml
Time dependent kill, Log CFU/ml (EMRSA-15 cells; T120 min, Exp1): 5.903 Log CFU/ml
Time dependent kill, CFU/ml (EMRSA-15 cells; T120 min, Exp2): 700000 CFU/ml
Time dependent kill, Log CFU/ml (EMRSA-15 cells; T120 min, Exp2): 5.8451 Log CFU/ml
Time dependent kill, CFU/ml (EMRSA-15 cells; T120 min, Exp3): 800000 CFU/ml
Time dependent kill, Log CFU/ml (EMRSA-15 cells; T120 min, Exp3): 5.903 Log CFU/ml
Time dependent kill, CFU/ml (EMRSA-15 cells; T240 min, Exp1): 80000 CFU/ml
Time dependent kill, Log CFU/ml (EMRSA-15 cells; T240 min, Exp1): 4.9031 Log CFU/ml
Time dependent kill, CFU/ml (EMRSA-15 cells; T240 min, Exp2): 100000 CFU/ml
Time dependent kill, Log CFU/ml (EMRSA-15 cells; T240 min, Exp2): 5 Log CFU/ml
Time dependent kill, CFU/ml (EMRSA-15 cells; T240 min, Exp3): 400000 CFU/ml
Time dependent kill, Log CFU/ml (EMRSA-15 cells; T240 min, Exp3): 5.602 Log CFU/ml
Time dependent kill, CFU/ml (EMRSA-15 cells; T360 min, Exp1): 60000 CFU/ml
Time dependent kill, Log CFU/ml (EMRSA-15 cells; T360 min, Exp1): 4.778 Log CFU/ml
Time dependent kill, CFU/ml (EMRSA-15 cells; T360 min, Exp2): 40000 CFU/ml
Time dependent kill, Log CFU/ml (EMRSA-15 cells; T360 min, Exp2): 4.602 Log CFU/ml
Time dependent kill, CFU/ml (EMRSA-15 cells; T360 min, Exp3): 40000 CFU/ml
Time dependent kill, Log CFU/ml (EMRSA-15 cells; T360 min, Exp3): 4.602 Log CFU/ml
Time dependent kill, CFU/ml (EMRSA-15 cells; T1440 min, Exp1): 0 CFU/ml
Time dependent kill, Log CFU/ml (EMRSA-15 cells; T1440 min, Exp1): 0 Log CFU/ml
Time dependent kill, CFU/ml (EMRSA-15 cells; T1440 min, Exp2): 0 CFU/ml
Time dependent kill, Log CFU/ml (EMRSA-15 cells; T1440 min, Exp2): 0 Log CFU/ml
Time dependent kill, CFU/ml (EMRSA-15 cells; T1440 min, Exp3): 0 CFU/ml
Time dependent kill, Log CFU/ml (EMRSA-15 cells; T1440 min, Exp3): 0 Log CFU/ml
reduction in viable cells, time-kill (EMRSA-15 cells; EMRSA-15, 3× MIC, after 6 h): ≥ 10^3 CFU/mL

From paper PMC8034185, “The rumen eukaryotome is a source of novel antimicrobial peptides with therapeutic potential” (BMC Microbiology, 2021)
